In patent EP3408309B1 (priority 2016, dated 2017):

Tests used:
[1] = test system: influenza A virus (X-31, H3N2); experiment: Hemagglutination inhibition (HAI) assay; assay type: cell-based
[2] = test system: fluorescently labeled X31; experiment: Microscale thermophoresis binding to whole virus particles; set-up: species or system influenza strain A/Aichi/2/68 H3N2; conditions: apparent dissociation constant, one site binding fit; read-out: Kdapp Particle
From the text: The examined IPGSAs show one binding step. Binding constants are described as apparent dissociation constants (Kdapp) derived from a one site binding fit of each binding step. Error bars indicate the standard error of the mean (n≥3).

Influenza neuraminidase = conditions: competitive inhibitors, background statement; cited from earlier work
X31 = experiment: Infection inhibition experiment with X31 in BALB/c mice; assay type: in vivo; conditions: X31 pretreated with inhibitor, intranasal application; loss in body weight over 11 days
Experimental: Figure 7A and 7B show the results of an infection inhibition experiment with X31 in BALB/c mice. X31 was pretreated with inhibitor at the indicated concentrations, followed by intranasal application of the mixture to sedated mice.
In the experiments, the results of which are depicted in Figure 7A, the infection-related loss in body weight was daily controlled for 11 days. IPGSA 3 at 5 mM and 1 mM sialic acid concentrations was compared to infected/untreated, uninfected/untreated or infected/control treated (linPGOH 1) cases. The effect of a cytokine storm related loss in body weight was controled by using UV inactivated X31, which was not infectious, but still able to hemagglutinate as the untreated virus. Error bars indicate the standard error of the mean (n≥5).
Error bars indicate the standard error of the mean (n≥5).

SMILES: CC(=O)N[C@H]1[C@H]([C@H](O)[C@H](O)CO)O[C@@](OC[C@H]2O[C@@H](O[C@H]3[C@H](O)[C@@H](O)C(O)O[C@@H]3CO)[C@H](O)[C@@H](O)[C@H]2O)(C(=O)O)C[C@@H]1O (stereo partly drawn) [α-2,6-sialyllactose]
- Enhancement factor (β) ([1]; inhibition potency compared to monomeric α-2,6-sialyllactose): 1
- Ki ([1]; sialic acid concentration, 4 HAU X31, lowest concentration for 100% inhibition, * = maximum tested concentration, read-out: Ki(HAI) SA): 48.1 ± 1.41 mM
- Kd [2]: 2.5 mM

SMILES: CCOC(=O)C1=C[C@@H](OC(CC)CC)[C@H](NC(C)=O)[C@@H](N)C1 [Tamiflu, Oseltamivir]
- IC50 values, enzyme inhibition (Influenza neuraminidase): low
- infection inhibition in vivo (X31): not able to cause potent infection inhibition

SMILES: CC(=O)N[C@H]1[C@H]([C@H](O)[C@H](O)CO)OC(C(=O)O)=C[C@@H]1N=C(N)N [Relenza, Zanamivir]
- IC50 values, enzyme inhibition (Influenza neuraminidase): low
